Reference: patent US11498903B2 (BRISTOL-MYERS SQUIBB COMPANY, priority 2017, dated 2022)
Where two headings read alike, the source gives them in different places.

Target: T1, human APJ receptor (Homo sapiens, UniProt P35414)
T1 construct: expressed in transfected cells
T1 sequence (P35414 1-380): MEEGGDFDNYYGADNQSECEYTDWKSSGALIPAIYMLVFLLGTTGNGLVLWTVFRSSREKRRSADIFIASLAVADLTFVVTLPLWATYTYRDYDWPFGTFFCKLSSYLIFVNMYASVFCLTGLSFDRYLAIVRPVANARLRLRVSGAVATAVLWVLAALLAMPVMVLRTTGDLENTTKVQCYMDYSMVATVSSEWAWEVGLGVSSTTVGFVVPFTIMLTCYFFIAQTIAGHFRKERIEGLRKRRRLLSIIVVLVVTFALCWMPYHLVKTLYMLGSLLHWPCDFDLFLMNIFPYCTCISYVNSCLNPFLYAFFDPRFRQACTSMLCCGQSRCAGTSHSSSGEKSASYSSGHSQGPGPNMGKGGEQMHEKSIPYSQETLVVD
Test: Intracellular cAMP accumulation assay (APJ hcAMP, HTRF)
Assay type: cell-based
Settings: HEK293 cells stably expressing human APJ receptor
Procedure, shortened: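 Inhibition of 2 μM forskolin-driven cAMP ([…] present) measured by HTRF in 5,000 HEK293 cells/well stably expressing human APJ, 30 min, room temperature. EC50 came from a variable-slope sigmoidal fit; Ymax was relative to (Pyr1)apelin-13 set at 100%.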

[1] = Table 1, inhibition of forskolin-mediated cAMP production, read-out: APJ hcAMP EC50
[2] = Table 2, read-out: APJ cAMP Human EC50

EC50 [1] [µM]	EC50 [2] [µM]	SMILES
0.01 to 0.1	0.01 to 0.1	CCC[C@@H](NC(=O)c1ccc(-c2cc(Cl)ccc2-c2nc3cc4ccccc4cc3[nH]2)c(C(=O)O)c1)c1ccccc1 [Example 27, 5′-chloro-2′-{1H-naphtho[2,3-d]imidazol-2-yl}-4-{[(1R)-1-phenylbutyl]carbamoyl}-[1,1′-biphenyl]-2-carboxylic acid]
0.01 to 0.1	0.01 to 0.1	CCC[C@@H](NC(=O)c1ccc(-c2cc(Cl)ccc2-c2nc3cc(C#N)ccc3[nH]2)c(C(=O)O)c1)c1ccccc1 [Example 28, 5′-chloro-2′-(5-cyano-1H-1,3-benzodiazol-2-yl)-4-{[(1R)-1-phenylbutyl]carbamoyl}-[1,1′-biphenyl]-2-carboxylic acid]
0.01 to 0.1	0.01 to 0.1	CCC[C@@H](NC(=O)c1ccc(-c2cc(Cl)ccc2-c2nc3ncncc3[nH]2)c(C(=O)O)c1)c1ccccc1 [Example 29, 5′-chloro-4-{[(1R)-1-phenylbutyl]carbamoyl}-2′-(7H-purin-8-yl)-[1,1′-biphenyl]-2-carboxylic acid]
0.01 to 0.1	0.01 to 0.1	CCC[C@@H](NC(=O)c1ccc(-c2cc(Cl)ccc2-c2nc3nc(C)ccc3[nH]2)c(C(=O)O)c1)c1ccccc1 [Example 30, 5′-chloro-2′-{5-methyl-1H-imidazo[4,5-b]pyridin-2-yl}-4-{[(1R)-1-phenylbutyl]carbamoyl}-[1,1′-biphenyl]-2-carboxylic acid]
0.01 to 0.1	0.01 to 0.1	CCC[C@@H](NC(=O)c1ccc(-c2cc(Cl)ccc2-c2nc3ncccc3[nH]2)c(C(=O)O)c1)c1ccccc1 [Example 31, 5′-chloro-2′-{1H-imidazo[4,5-b]pyridin-2-yl}-4-{[(1R)-1-phenylbutyl]carbamoyl}-[1,1′-biphenyl]-2-carboxylic acid]
< 0.01	< 0.01	CCC[C@@H](NC(=O)c1ccc(-c2cc(C)ccc2-c2nc3ccccc3[nH]2)c(C(=O)O)c1)c1ccccc1 [Example 32, 2′-(1H-1,3-benzodiazol-2-yl)-5′-methyl-4-{[(1R)-1-phenylbutyl]carbamoyl}-[1,1′-biphenyl]-2-carboxylic acid]
< 0.01	< 0.01	CCC[C@@H](NC(=O)c1ccc(-c2cc(F)ccc2-c2nc3ccccc3[nH]2)c(C(=O)O)c1)c1ccccc1 [Example 33, 2′-(1H-1,3-benzodiazol-2-yl)-5′-fluoro-4-{[(1R)-1-phenylbutyl]carbamoyl}-[1,1′-biphenyl]-2-carboxylic acid]
< 0.01	< 0.01	CCC[C@@H](NC(=O)c1ccc(-c2ccc(F)cc2-c2nc3ccccc3[nH]2)c(C(=O)O)c1)c1ccccc1 [Example 34, 2′-(1H-1,3-benzodiazol-2-yl)-4′-fluoro-4-{[(1R)-1-phenylbutyl]carbamoyl}-[1,1′-biphenyl]-2-carboxylic acid]
< 0.01	< 0.01	CCC[C@@H](NC(=O)c1ccc(-c2cc(C)ccc2-c2nc3cc(OC)ccc3[nH]2)c(C(=O)O)c1)c1ccccc1 [Example 35, 2′-(5-methoxy-1H-1,3-benzodiazol-2-yl)-5′-methyl-4-{[(1R)-1-phenylbutyl]carbamoyl}-[1,1′-biphenyl]-2-carboxylic acid]
< 0.01	< 0.01	CCC[C@@H](NC(=O)c1ccc(-c2cc(F)ccc2-c2nc3cc(OC)ccc3[nH]2)c(C(=O)O)c1)c1ccccc1 [Example 36, 5′-fluoro-2′-(5-methoxy-1H-1,3-benzodiazol-2-yl)-4-{[(1R)-1-phenylbutyl]carbamoyl}-[1,1′-biphenyl]-2-carboxylic acid]
< 0.01	< 0.01	CCC[C@@H](NC(=O)c1ccc(-c2ccc(F)cc2-c2nc3cc(OC)ccc3[nH]2)c(C(=O)O)c1)c1ccccc1 [Example 37, 4′-fluoro-2′-(5-methoxy-1H-1,3-benzodiazol-2-yl)-4-{[(1R)-1-phenylbutyl]carbamoyl}-[1,1′-biphenyl]-2-carboxylic acid]
< 0.01	< 0.01	CCC[C@@H](NC(=O)c1ccc(-c2cc(C)ccc2-c2nc3cc(C(C)(C)C)ccc3[nH]2)c(C(=O)O)c1)c1ccccc1 [Example 38, 2′-(5-tert-butyl-1H-1,3-benzodiazol-2-yl)-5′-methyl-4-{[(1R)-1-phenylbutyl]carbamoyl}-[1,1-biphenyl]-2-carboxylic acid]
0.01 to 0.1	0.01 to 0.1	CCC[C@@H](NC(=O)c1ccc(-c2cc(F)ccc2-c2nc3cc(C(C)(C)C)ccc3[nH]2)c(C(=O)O)c1)c1ccccc1 [Example 39, 2′-(5-tert-butyl-1H-1,3-benzodiazol-2-yl)-5′-fluoro-4-{[(1R)-1-phenylbutyl]carbamoyl}-[1,1′-biphenyl]-2-carboxylic acid]
0.01 to 0.1	0.01 to 0.1	CCC[C@@H](NC(=O)c1ccc(-c2ccc(F)cc2-c2nc3cc(C(C)(C)C)ccc3[nH]2)c(C(=O)O)c1)c1ccccc1 [Example 40, 2′-(5-tert-butyl-1H-1,3-benzodiazol-2-yl)-4′-fluoro-4-{[(1R)-1-phenylbutyl]carbamoyl}-[1,1′-biphenyl]-2-carboxylic acid]
0.01 to 0.1	0.01 to 0.1	CCC[C@@H](NC(=O)c1ccc(-c2cc(Cl)ccc2-c2nc3ccccc3[nH]2)c(C(=O)NOC)c1)c1ccccc1 [Example 41, 2′-(1H-1,3-benzodiazol-2-yl)-5′-chloro-N2-methoxy-N4-[(1R)-1-phenylbutyl]-[1,1′-biphenyl]-2,4-dicarboxamide]
0.01 to 0.1	0.01 to 0.1	CCC[C@@H](NC(=O)c1ccc(-c2cc(Cl)ccc2-c2nc3ccccc3[nH]2)c(C(=O)NO)c1)c1ccccc1 [Example 42, 2′-(1H-1,3-benzodiazol-2-yl)-5′-chloro-N2-hydroxy-N4-[(1R)-1-phenylbutyl]-[1,1′-biphenyl]-2,4-dicarboxamide]
0.101 to 0.5	0.101 to 0.5	CCC[C@@H](NC(=O)c1ccc(-c2cc(Cl)ccc2-c2nc3ccccc3[nH]2)c(C(=O)OC)c1)c1ccccc1 [Example 43, methyl 2′-(1H-1,3-benzodiazol-2-yl)-5′-chloro-4-{[(1R)-1-phenylbutyl]carbamoyl}-[1,1′-biphenyl]-2-carboxylate]
0.01 to 0.1	0.01 to 0.1	CCC[C@@H](NC(=O)c1ccc(-c2cc(Cl)ccc2-c2nc3ccccc3[nH]2)c(C(=O)NS(C)(=O)=O)c1)c1ccccc1 [Example 44, 2′-(1H-1,3-benzodiazol-2-yl)-5′-chloro-N2-methanesulfonyl-N4-[(1R)-1-phenylbutyl]-[1,1′-biphenyl]-2,4-dicarboxamide]
0.101 to 0.5	0.101 to 0.5	CCC[C@@H](NC(=O)c1ccc(-c2cc(Cl)ccc2-c2nc3ccccc3[nH]2)c(C(=O)NS(=O)(=O)c2ccc(Cl)cc2)c1)c1ccccc1 [Example 45, 2′-(1H-1,3-benzodiazol-2-yl)-5′-chloro-N2-(4-chlorobenzenesulfonyl)-N4-[(1R)-1-phenylbutyl]-[1,1′-biphenyl]-2,4-dicarboxamide]
< 0.01	< 0.01	CCC[C@@H](NC(=O)c1ccc(-c2cc(Cl)ccc2-c2nc3cc(Cl)ccc3[nH]2)c(C(=O)O)c1)c1ccccc1 [Example 47, 5′-chloro-2′-(5-chloro-1H-1,3-benzodiazol-2-yl)-4-{[(1R)-1-phenylbutyl]carbamoyl}-[1,1′-biphenyl]-2-carboxylicacid]
< 0.01	< 0.01	CCC[C@@H](NC(=O)c1ccc(-c2cc(Cl)ccc2-c2nc3cc(C(C)C)ccc3[nH]2)c(C(=O)O)c1)c1ccccc1 [Example 48, 5′-chloro-4-{[(1R)-1-phenylbutyl]carbamoyl}-2′-[5-(propan-2-yl)-1H-1,3-benzodiazol-2-yl]-[1,1′-biphenyl]-2-carboxylic acid]
0.01 to 0.1	0.01 to 0.1	CCC[C@@H](NC(=O)c1ccc(-c2cc(Cl)ccc2-c2nc3cccc(C)c3[nH]2)c(C(=O)O)c1)c1ccccc1 [Example 49, 5′-chloro-2,-(4-methyl-1H-1,3-benzodiazol-2-yl)-4-{[(1R)-1-phenylbutyl]carbamoyl}-[1,1′-biphenyl]-2-carboxylic acid]
0.01 to 0.1	0.01 to 0.1	CCC[C@@H](NC(=O)c1ccc(-c2cc(Cl)ccc2-c2nc(C)c(C)[nH]2)c(C(=O)O)c1)c1ccccc1 [Example 50, 5′-chloro-2′-(4,5-dimethyl-1H-imidazol-2-yl)-4-{[(1R)-1-phenylbutyl]carbamoyl}-[1,1′-biphenyl]-2-carboxylic acid]
< 0.01	< 0.01	CCC[C@@H](NC(=O)c1ccc(-c2cc(C(F)(F)F)ccc2-c2nc3ccccc3[nH]2)c(C(=O)O)c1)c1ccccc1 [Example 51, 2′-(1H-1,3-benzodiazol-2-yl)-4-{[(1R)-1-phenylbutyl]carbamoyl}-5′-(trifluoromethyl)-[1,1′-biphenyl]-2-carboxylic acid]
< 0.01	< 0.01	CCC[C@@H](NC(=O)c1ccc(-c2ccccc2-c2nc3ccccc3[nH]2)c(C(=O)O)c1)c1ccccc1 [Example 52, 2′-(1H-1,3-benzodiazol-2-yl)-4-{[(1R)-1-phenylbutyl]carbamoyl}-[1,1′-biphenyl]-2-carboxylic acid]
< 0.01	< 0.01	CCC[C@@H](NC(=O)c1ccc(-c2cc(OC)ccc2-c2nc3ccccc3[nH]2)c(C(=O)O)c1)c1ccccc1 [Example 53, 2′-(1H-1,3-benzodiazol-2-yl)-5′-methoxy-4-{[(1R)-1-phenylbutyl]carbamoyl}-[1,1′-biphenyl]-2-carboxylic acid]
